Data as given in patent US9125388B2, “Biological control” (Isis Innovation Limited, priority 1999, dated 2015).

What was measured:
[1] = system: Yp3 tTa, tRe Msl-1^Mpu on the 2nd chromosome; assay: Recombinant chromosome experiments: parents raised on supplement, progeny on normal food, adults by sex (25, 18 or 29° C.); assay type: in vivo, Drosophila melanogaster
Procedure: (§1) 40-45 young females and 20-25 young males raised at 25° C. upon food with the indicated tetracycline supplement were allowed to mate, then transferred to normal (tetracycline-free) food after 3-4 days. These flies were transferred to fresh vials of normal food every day for 12 days, then removed on the 13th day. All the vials were incubated at 25° C. while the progeny developed. The numbers of male and female progeny emerging as adults in each vial were recorded.
Since there is no meiotic recombination in Drosophila melanogaster males, any of these recombinant chromosomes could be used in a genetic sexing or insect control program, if required.
(§2) A standard range of additive concentrations were used in the following experiments (0.05-20 μg/ml). […] (=“not done”)
(§3) All the preceding experiments were performed at 25° C., the standard temperature for Drosophila culture. However, the insects in the wild would clearly be exposed to varying temperatures, so we investigated the extent to which the efficiency of the system is affected by temperature. As with the recombinant chromosome experiments, 40-45 young virgin females and 20-25 young males raised at 25° C. upon food with the indicated tetracycline supplement were allowed to mate, then transferred to normal (tetracycline-free) food after 3-4 days. These flies were transferred to fresh vials of normal food every day. The numbers of male and female progeny emerging as adults in each vial were recorded. These experiments were performed at either 18° C. or 29° C.

[2] = system: Yp3 tTa, tRe Ras64B^V12 on the 2nd chromosome; assay: Recombinant chromosome experiments / maternal transmission of Tc (Table 1): parents raised on supplement, progeny on normal food, adults by sex; assay type: in vivo, Drosophila melanogaster; settings: 25° C.
Procedure: as §1, §2, §3
We used a strain of Drosophila in which females, but not males, require Tc for viability.
A strain homozygous for second chromosome insertions of both Yp3-tTA and tRe-Ras64B^V12 was tested for the effect of parental dietary Tc. 40-45 young females and 20-25 young males raised at 25° C. upon food with the indicated tetracycline supplement were allowed to mate, then transferred to normal (tetracycline-free) food after 3-4 days. These flies were transferred to fresh vials of normal food every day for 12 days, and then removed on the 13th day. All the vials were incubated at 25° C. while the progeny developed. The total numbers of male and female progeny emerging as adults were recorded.

[3] = parents raised on tetracycline 0.1 μg/ml, 18° C.
[4] = parents raised on tetracycline 0.1 μg/ml, 29° C.
[5] = parents raised on tetracycline 1 μg/ml, 18° C.
[6] = parents raised on tetracycline 1 μg/ml, 29° C.
[7] = parents raised on tetracycline 5 μg/ml, 18° C.
[8] = parents raised on tetracycline 5 μg/ml, 29° C.
[9] = parents raised on Tc 0.1 μg/ml, Day 8 on normal food
[10] = parents raised on Tc 0.1 μg/ml, Day 9 on normal food
[11] = parents raised on Tc 0.1 μg/ml, Day 10 on normal food
[12] = parents raised on Tc 0.1 μg/ml, Day 11 on normal food
[13] = parents raised on Tc 0.1 μg/ml, Day 12 on normal food
[14] = parents raised on Tc 0.1 μg/ml, Total of Days 1-12 on normal food
[15] = parents raised on Tc 1 μg/ml, Day 8 on normal food
[16] = parents raised on Tc 1 μg/ml, Day 9 on normal food
[17] = parents raised on Tc 1 μg/ml, Day 10 on normal food
[18] = parents raised on Tc 1 μg/ml, Day 11 on normal food
[19] = parents raised on Tc 1 μg/ml, Day 12 on normal food
[20] = parents raised on Tc 1 μg/ml, Total of Days 1-12 on normal food
[21] = parents raised on Tc 5 μg/ml, Day 8 on normal food
[22] = parents raised on Tc 5 μg/ml, Total of Days 1-12 on normal food
[23] = parents raised on Tc 20 μg/ml, Day 1 on normal food
[24] = parents raised on Tc 20 μg/ml, Day 2 on normal food
[25] = parents raised on Tc 20 μg/ml, Day 3 on normal food
[26] = parents raised on Tc 20 μg/ml, Day 4 on normal food
[27] = parents raised on Tc 20 μg/ml, Day 5 on normal food
[28] = parents raised on Tc 20 μg/ml, Day 6 on normal food
[29] = parents raised on Tc 20 μg/ml, Day 7 on normal food
[30] = parents raised on Tc 100 μg/ml, Day 1 on normal food
[31] = parents raised on Tc 100 μg/ml, Day 2 on normal food
[32] = parents raised on Tc 100 μg/ml, Day 3 on normal food

CN(C)[C@@H]1C(O)=C(C(N)=O)C(=O)[C@@]2(O)C(O)=C3C(=O)c4c(O)cccc4[C@@](C)(O)[C@H]3C[C@@H]12 [Tetracycline, tetracycline]
escapers ([1]; even at low (parental) tetracycline concentrations): < 1%
Female progeny emerging as adults [1, 3]: 5
Male progeny emerging as adults [1, 3]: 1303
Female progeny emerging as adults [1, 4]: 0
Male progeny emerging as adults [1, 4]: 799
Female progeny emerging as adults [1, 5]: 14
Male progeny emerging as adults [1, 5]: 1218
Female progeny emerging as adults [1, 6]: 0
Male progeny emerging as adults [1, 6]: 749
Female progeny emerging as adults [1, 7]: 7
Male progeny emerging as adults [1, 7]: 1386
Female progeny emerging as adults [1, 8]: 0
Male progeny emerging as adults [1, 8]: 744
♀ progeny emerging as adults [2, 9]: 0
♂ progeny emerging as adults [2, 9]: 105
♀ progeny emerging as adults [2, 10]: 0
♂ progeny emerging as adults [2, 10]: 133
♀ progeny emerging as adults [2, 11]: 0
♂ progeny emerging as adults [2, 11]: 93
♀ progeny emerging as adults [2, 12]: 0
♂ progeny emerging as adults [2, 12]: 131
♀ progeny emerging as adults [2, 13]: 0
♂ progeny emerging as adults [2, 13]: 121
♀ progeny emerging as adults [2, 14]: 0
♂ progeny emerging as adults [2, 14]: 1363
♀ progeny emerging as adults [2, 15]: 0
♂ progeny emerging as adults [2, 15]: 90
♀ progeny emerging as adults [2, 16]: 0
♂ progeny emerging as adults [2, 16]: 119
♀ progeny emerging as adults [2, 17]: 0
♂ progeny emerging as adults [2, 17]: 94
♀ progeny emerging as adults [2, 18]: 0
♂ progeny emerging as adults [2, 18]: 98
♀ progeny emerging as adults [2, 19]: 0
♂ progeny emerging as adults [2, 19]: 100
♀ progeny emerging as adults [2, 20]: 0
♂ progeny emerging as adults [2, 20]: 1360
♀ progeny emerging as adults [2, 21]: 0
♂ progeny emerging as adults [2, 21]: 119
♂ progeny emerging as adults ([2]; parents raised on Tc 5 μg/ml, Day 9 on normal food): 96
♀ progeny emerging as adults ([2]; parents raised on Tc 5 μg/ml, Day 12 on normal food): 0
♀ progeny emerging as adults [2, 22]: 0
♂ progeny emerging as adults [2, 22]: 1384
♀ progeny emerging as adults [2, 23]: 0
♂ progeny emerging as adults [2, 23]: 89
♀ progeny emerging as adults [2, 24]: 0
♂ progeny emerging as adults [2, 24]: 107
♀ progeny emerging as adults [2, 25]: 0
♂ progeny emerging as adults [2, 25]: 107
♀ progeny emerging as adults [2, 26]: 0
♂ progeny emerging as adults [2, 26]: 98
♀ progeny emerging as adults [2, 27]: 0
♂ progeny emerging as adults [2, 27]: 88
♀ progeny emerging as adults [2, 28]: 0
♂ progeny emerging as adults [2, 28]: 102
♀ progeny emerging as adults [2, 29]: 0
♂ progeny emerging as adults [2, 29]: 107
♀ progeny emerging as adults [2, 30]: 0
♂ progeny emerging as adults [2, 30]: 129
♀ progeny emerging as adults [2, 31]: 0
♂ progeny emerging as adults [2, 31]: 136
♀ progeny emerging as adults [2, 32]: 0
♂ progeny emerging as adults [2, 32]: 128
